Assay results published in patent publication US5214045A, “Amino acid containing acrylamide derivatives for ulcer prevention or treatment” (Richter Gedeon Vegyeszeti Gyar RT, priority 1989, dated 1993).

Key:
[1] = tested on: gastric injuries induced by acidic alcohol; test: Assay of gastric injuries induced by acidic alcohol; assay type: in vivo; conditions: female rats; for ED50: Rattus norvegicus, po, pretreatment 30 min, length of haemorrhagic lesions
Procedure: 1) Assay of gastric injuries induced by acidic alcohol
Female rats weighing about 120 to 150 g fasted for 24 hours were used in this test. Test compounds suspended with Tween 80 were given orally to the animals through an intragastric tube. After a certain period (pretreatmenttime) acidic alcohol was given through the intragastric tube at a dose or 0.5 ml per 100 g of body weight. The animals were sacrificed after 1 hour, their stomachs were removed and incised along the great curve. The length of the reddish-brown strips (haemorrhagic lesions) was measured and the mean total length per stomach was calculated. The biological activity of the test compounds was given and compared to that of the control group. the results are shown in Tables 1 and 2 below.

[2] = tested on: gastric acid secretion; test: Assay of the inhibition of gastric acid secretion by using pylorus ligature; assay type: in vivo; conditions: female Wistar rats, 4 hours
Procedure: 2) Assay of the inhibition of gastric acid secretion by using pylorus ligature
[Shay et al., Gastroenterology, 5, 43-61 (1945)]
Before ligating the pylorus, the test compounds suspended with Tween were given orally at a volume of 0.5 ml per […] of body weight to female Wistar rats fasted previously for 20 hours. The animals were sacrificed 4 hours after the operation, and the amount of the acid in the stomach was measured by titration with 0.01N sodium hydroxide solution in the presence of phenolphthalein indicator. The pH value of the content of the stomach was measured by using a pH-meter (Radelkis, Type OP-211/1).

| Structure (SMILES) | % Inhibition at a dose of 10 mg/kg p.o. (pretreatment: 30 min) [1] [%] | ED50 [1] [mg/kg] | % Inhibition in the amount of the acid at a dose of 25 mg/kg p.o. (pretreatment: 30 min) [2] [%] |
| --- | --- | --- | --- |
| COC(=O)[C@@H]1CSCN1C(=O)/C=C\Sc1ccccc1 [J, Methyl N-[3-phenylthio-2(Z)-propenoyl]-(R)-thiazolidine-4-carboxylate] | 20 |  |  |
| CCOC(=O)C[C@@H](NC(=O)/C=C/S(=O)(=O)c1ccccc1)C(=O)OCC [B, Diethyl N-[3-phenylsulfonyl-2(E)-propenoyl]-(R)-aspartate] |  | 3.5 |  |
| COC(=O)[C@H](CCSC)NC(=O)/C=C/S(=O)(=O)c1ccccc1 [D, Methyl 2(S)-[3-phenylsulfonyl-2(E)-propenoylamino]-4-methylthiobutyrate] |  | 3.5 |  |
| NC(=O)[C@@H]1CCCN1C(=O)/C=C/S(=O)(=O)c1ccccc1 [G, 1-[3-Phenylsulfonyl-2(E)-propenoyl]-2(S)-carbamoylpyrrolidine] |  | 4.5 | 30 |
| CCOC(=O)CNC(=O)/C=C/S(=O)(=O)c1ccccc1 [H, Ethyl N-[3-phenylsulfonyl-2(E)-propenoyl]glycinate] |  | 1.6 | 30 |
| CCOC(=O)C[C@H](NC(=O)/C=C/Sc1ccccc1)C(=O)OCC [F, Diethyl N-[3-phenylthio-2(E)-propenoyl]-(S)-aspartate] | 20 |  | 20 |
| O=C(/C=C/S(=O)(=O)c1ccccc1)N1CCN(c2ccccc2)CC1 [C, 1-[3-Phenylsulfonyl-2(E)-propenoyl]-4-phenyl-piperazine] |  |  | 20 |
| CCOC(=O)C[C@@H](NC(=O)/C=C/[S+]([O-])c1ccccc1)C(=O)OCC (stereo partly drawn) [A, Diethyl N-[3-phenylsulfinyl-2(E)-propenoyl]-(R)-aspartate] |  | 2.1 | 30 |
| CCOC(=O)C[C@@H](NC(=O)/C=C/Sc1ccccc1)C(=O)OCC [E, Diethyl N-[3-phenylthio-2(E)-propenoyl]-(R)-aspartate] | 20 |  | 20 |
| O=C(O)C[C@@H](NC(=O)/C=C/S(=O)(=O)c1ccccc1)C(=O)O [K, Magnesium N-[3-phenylsulfonyl-2(E)-propenoyl]-(R)aspartate.4H2 O] |  |  | 30 |
| CCOC(=O)[C@H](C)NC(=O)/C=C/S(=O)(=O)c1ccccc1 [I, Ethyl N-[3-phenylsulfonyl-2(E)-propenoyl]-(S)alanate] |  | 2.2 | 20 |
